Values of other authors, collected in US20150050333A1, “PHARMACEUTICAL COMPOSITION COMPRISING OLMESARTAN MEDOXOMIL AND ROSUVASTATIN OR ITS SALT” (priority 2012, published 2015).

Test system: CYP450

Row | Metabolism of olmesartan medoxomil by CYP450 (after in vivo absorption) | Portion of rosuvastatin that is metabolized (metabolized mainly by CYP 2C9 and CYP 2C19) [%] | SMILES
1 | not metabolized by CYP450 | – | CCCc1nc(C(C)(C)O)c(C(=O)OCc2oc(=O)oc2C)n1Cc1ccc(-c2ccccc2-c2nnn[nH]2)cc1 [Olmesartan medoxomil]
2 | – | 10 | CC(C)c1nc(N(C)S(C)(=O)=O)nc(-c2ccc(F)cc2)c1/C=C/[C@@H](O)C[C@@H](O)CC(=O)O [rosuvastatin]
